Measurements: US20240279236A1, “COMPOUNDS AND METHODS OF TREATING TUBERCULOSIS” (Fimbrion Therapeutics, Inc., priority 2021, published 2024)

Test system: WT Mtb Erdman strain
Experiment: Microplate Alamar Blue Assay (MABA), Mtb growth inhibition
Assay type: cell-based, Mycobacterium tuberculosis
Conditions: Mycobacterium tuberculosis, ERDMAN, 168 h, Middlebrook 7H9 media, 7 days at 37° C. in 5% CO2

SMILES: CCc1nc(NCC(O)Cc2ccccc2)c2cc(C)sc2n1 (stereo not shown) [Example 194, 1-((2-ethyl-6-methylthieno[2,3-d]pyrimidin-4-yl)amino)-3-phenylpropan-2-ol]
- IC50: > 10000 nM

SMILES: CCc1nc(NCCCN(C)c2ccccc2)c2cc(C)sc2n1 [Example 195, N1-(2-ethyl-6-methylthieno[2,3-d]pyrimidin-4-yl)-N3-methyl-N3-phenylpropane-1,3-diamine]
- IC50: 680 nM

SMILES: CCc1nc(NCCCn2ccc3ccccc32)c2cc(C)sc2n1 [Example 196, N-(3-(1H-indol-1-yl)propyl)-2-ethyl-6-methylthieno[2,3-d]pyrimidin-4-amine]
- IC50: 450 nM

SMILES: CCc1nc(NCCCn2cccn2)c2cc(C)sc2n1 [Example 197, N-(3-(1H-pyrazol-1-yl)propyl)-2-ethyl-6-methylthieno[2,3-d]pyrimidin-4-amine]
- IC50: 8200 nM

SMILES: CCc1nc(NCCCc2cccc3ccccc23)c2cc(C)sc2n1 [Example 198, 2-ethyl-6-methyl-N-(3-(naphthalen-1-yl)propyl)thieno[2,3-d]pyrimidin-4-amine]
- IC50: 170 nM

SMILES: CCc1nc(NCCCc2ccc(Br)cc2)c2cc(C)sc2n1 [Example 199, N-(3-(4-bromophenyl)propyl)-2-ethyl-6-methylthieno[2,3-d]pyrimidin-4-amine]
- IC50: 120 nM

SMILES: CCc1nc(NCCCc2ccccc2F)c2cc(C)sc2n1 [Example 200, 2-ethyl-N-(3-(2-fluorophenyl)propyl)-6-methylthieno[2,3-d]pyrimidin-4-amine]
- IC50: 650 nM

SMILES: CCc1nc(NCCCc2ccc(Oc3ccccc3)cc2)c2cc(C)sc2n1 [Example 201, 2-ethyl-6-methyl-N-(3-(4-phenoxyphenyl)propyl)thieno[2,3-d]pyrimidin-4-amine]
- IC50: 610 nM

SMILES: CCc1nc(NCCCc2cccc(Br)c2)c2cc(C)sc2n1 [Example 202, N-(3-(3-bromophenyl)propyl)-2-ethyl-6-methylthieno[2,3-d]pyrimidin-4-amine]
- IC50: 260 nM

SMILES: CCc1nc(NCCCc2ccc(C(C)(C)C)cc2)c2cc(C)sc2n1 [Example 203, N-(3-(4-(tert-butyl)phenyl)propyl)-2-ethyl-6-methylthieno[2,3-d]pyrimidin-4-amine]
- IC50: 89 nM

SMILES: Cc1cc2c(NCCCc3ccc(Br)cc3)nc(C(F)(F)F)nc2s1 [Example 204, N-(3-(4-bromophenyl)propyl)-6-methyl-2-(trifluoromethyl) thieno[2,3-d] pyrimidin-4-amine]
- IC50: 1900 nM

SMILES: Cc1cc2c(NCCCc3cccc4ccccc34)nc(C(F)(F)F)nc2s1 [Example 205, 6-methyl-N-(3-(naphthalen-1-yl)propyl)-2-(trifluoromethyl) thieno[2,3-d] pyrimidin-4-amine]
- IC50: 1200 nM

SMILES: Cc1cc2c(NCCCc3ccc(C(C)(C)C)cc3)nc(C(F)(F)F)nc2s1 [Example 206, N-(3-(4-(tert-butyl)phenyl)propyl)-6-methyl-2-(trifluoromethyl) thieno[2,3-d] pyrimidin-4-amine]
- IC50: 260 nM

SMILES: Cc1cc2c(NCCCCc3ccc(Br)cc3)nc(-c3ccoc3)nc2s1 [Example 207, N-(4-(4-bromophenyl)butyl)-2-(furan-3-yl)-6-methylthieno[2,3-d]pyrimidin-4-amine]
- IC50: 350 nM

SMILES: Cc1cc2c(NCCCN3CCN(c4ccccc4)CC3)nc(-c3ccoc3)nc2s1 [Example 208, 2-(furan-3-yl)-6-methyl-N-(3-(4-phenylpiperazin-1-yl)propyl)thieno[2,3-d]pyrimidin-4-amine]
- IC50: 3200 nM

SMILES: Cc1cc2c(NCCN3CCN(c4ccccc4)CC3)nc(-c3ccoc3)nc2s1 [Example 209, 2-(furan-3-yl)-6-methyl-N-(2-(4-phenylpiperazin-1-yl)ethyl)thieno[2,3-d]pyrimidin-4-amine]
- IC50: 4900 nM

SMILES: Cc1cc2c(NCCC(=O)N3CCN(c4ccccc4)CC3)nc(-c3ccoc3)nc2s1 [Example 210, 3-((2-(furan-3-yl)-6-methylthieno[2,3-d]pyrimidin-4-yl)amino)-1-(4-phenylpiperazin-1-yl)propan-1-one]
- IC50: 8200 nM

SMILES: Cc1cc2c(NCCCc3ccc(Br)cc3F)nc(-c3ccoc3)nc2s1 [Example 211, N-(3-(4-bromo-2-fluorophenyl)propyl)-2-(furan-3-yl)-6-methylthieno[2,3-d]pyrimidin-4-amine]
- IC50: 120 nM

SMILES: Clc1nc(NCCCc2ccccc2)c2ccsc2n1 [Example 218, 2-chloro-N-(3-phenylpropyl)thieno [2,3-d]pyrimidin-4-amine]
- IC50: 6400 nM

SMILES: COc1ccc(CCCNc2nc(Cl)nc3sccc23)cc1 [Example 219, 2-chloro-N-(3-(4-methoxyphenyl)propyl)thieno[2,3-d]pyrimidin-4-amine]
- IC50: > 7700 nM

SMILES: Fc1ccc([C@@H]2C[C@H]2Nc2nc(Cl)nc3sccc23)cc1F [Example 220, 2-chloro-N-((1R,2S)-2-(3,4-difluorophenyl)cyclopropyl)thieno[2,3-d]pyrimidin-4-amine]
- IC50: > 7200 nM

SMILES: Fc1ccc([C@@H]2C[C@H]2Nc2nc(Cl)nc3scnc23)cc1F [Example 221, 5-chloro-N-((1R,2S)-2-(3,4-difluorophenyl)cyclopropyl)thiazolo [5,4-d]pyrimidin-7-amine]
- IC50: > 10000 nM

SMILES: Cc1cc2c(N[C@@H]3C[C@H]3c3ccc(F)c(F)c3)nc(Cl)nc2s1 [Example 222, 2-chloro-N-((1R,2S)-2-(3,4-difluorophenyl)cyclopropyl)-6-methylthieno[2,3-d]pyrimidin-4-amine]
- IC50: 1500 nM

SMILES: Cc1cc2c(NCCCc3ccc(OC(F)(F)F)cc3)nc(Cl)nc2s1 [Example 223, 2-chloro-6-methyl-N-(3-(4-(trifluoromethoxy)phenyl)propyl) thieno[2,3-d] pyrimidin-4-amine]
- IC50: 1700 nM

SMILES: Cc1cc2c(NCCCc3ccccc3)nc(Cl)nc2s1 [Example 224, 2-chloro-6-methyl-N-(3-phenylpropyl)thieno [2,3-d]pyrimidin-4-amine]
- IC50: 1600 nM

SMILES: Cc1cc2c(NC/C=C/c3ccccc3)nc(Cl)nc2s1 [Example 225, 2-chloro-N-cinnamyl-6-methylthieno[2,3-d]pyrimidin-4-amine]
- IC50: 390 nM

SMILES: Cc1cc2c(N[C@@H]3C[C@H]3c3ccc(F)c(F)c3)nc(OCC(F)(F)F)nc2s1 [Example 226, N-((1R,2S)-2-(3,4-difluorophenyl)cyclopropyl)-6-methyl-2-(2,2,2-trifluoroethoxy)thieno [2,3-d]pyrimidin-4-amine]
- IC50: 1200 nM

SMILES: Cc1cc2c(N[C@@H]3C[C@H]3c3ccc(F)c(F)c3)nc(C#N)nc2s1 [Example 227, 4-(((1R,2S)-2-(3,4-difluorophenyl)cyclopropyl)amino)-6-methylthieno[2,3-d]pyrimidine-2-carbonitrile]
- IC50: 3300 nM

SMILES: Cc1cccc(CCCNc2nc(C(F)(F)F)nc3sc(C)cc23)c1 [Example 228, 6-methyl-N-(3-(m-tolyl)propyl)-2-(trifluoromethyl)thieno [2,3-d]pyrimidin-4-amine]
- IC50: 1500 nM

SMILES: COC(=O)c1cccc(CCCNc2nc(C(F)(F)F)nc3sc(C)cc23)c1 [Example 229, methyl 3-(3-((6-methyl-2-(trifluoromethyl)thieno [2,3-d]pyrimidin-4-yl)amino)propyl) benzoate]
- IC50: 5900 nM

SMILES: Cc1cc2c(NCCCc3cc4ccccc4s3)nc(C(F)(F)F)nc2s1 [Example 230, N-(3-(benzo [b]thiophen-2-yl)propyl)-6-methyl-2-(trifluoromethyl) thieno [2,3-d]pyrimidin-4-amine]
- IC50: 2500 nM
